The supplement of paper PMC10307832

Tests used:
Experiment in all cases: relative viability (nuclei count vs DMSO), 5 days (fraction); higher = more cells survive
Carboplatin + Crizotinib = compound: C1CC(C1)(C(=O)O)C(=O)O.[NH2-].[NH2-].[Pt+2] [Carboplatin] + C[C@@H](Oc1cc(-c2cnn(C3CCNCC3)c2)cnc1N)c1c(Cl)ccc(F)c1Cl [Crizotinib] (partner 1 µM)
In short: (§1)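 The day after seeding in 1536-well plates, lung cancer cell lines were treated by pin tool with a single drug, or with a fixed anchor-drug dose together with five library-drug doses (not always all listed) in √10 steps. After 5 days, a combined fix-and-stain solution (final 0.05% Triton X-100, 1% formaldehyde, 1 ug/ml Hoechst) was added. Nuclei counted on 4× images gave relative viability as treated counts over vehicle counts, reported as the median of duplicate plates.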

MLN4924 + Luminespib = compound: NS(=O)(=O)OC[C@@H]1C[C@@H](n2ccc3c(N[C@H]4CCc5ccccc54)ncnc32)C[C@@H]1O [MLN4924] + CCNC(=O)c1noc(-c2cc(C(C)C)c(O)cc2O)c1-c1ccc(CN2CCOCC2)cc1 [Luminespib] (partner 0.01 µM)
In short: as §1

MLN4924 + Pictilisib = compound: NS(=O)(=O)OC[C@@H]1C[C@@H](n2ccc3c(N[C@H]4CCc5ccccc54)ncnc32)C[C@@H]1O [MLN4924] + CS(=O)(=O)N1CCN(Cc2cc3nc(-c4cccc5[nH]ncc45)nc(N4CCOCC4)c3s2)CC1 [Pictilisib] (partner 1 µM)
In short: as §1

MLN4924 + Pemetrexed = compound: NS(=O)(=O)OC[C@@H]1C[C@@H](n2ccc3c(N[C@H]4CCc5ccccc54)ncnc32)C[C@@H]1O [MLN4924] + Nc1nc2[nH]cc(CCc3ccc(C(=O)N[C@@H](CCC(=O)O)C(=O)O)cc3)c2c(=O)[nH]1 [Pemetrexed] (partner 0.2 µM)
In short: as §1

UMC-11
relative viability (Carboplatin + Crizotinib; first compound 0.08 µM): 0.721
relative viability (Carboplatin + Crizotinib; first compound 0.253 µM): 0.652
relative viability (Carboplatin + Crizotinib; first compound 0.8 µM): 0.515
relative viability (Carboplatin + Crizotinib; first compound 2.53 µM): 0.484
relative viability (Carboplatin + Crizotinib; first compound 8 µM): 0.301
relative viability (MLN4924 + Luminespib; first compound 0.04 µM): 0.598
relative viability (MLN4924 + Luminespib; first compound 0.1265 µM): 0.351
relative viability (MLN4924 + Luminespib; first compound 0.4 µM): 0.285
relative viability (MLN4924 + Luminespib; first compound 1.265 µM): 0.17
relative viability (MLN4924 + Luminespib; first compound 4 µM): 0.182
relative viability (MLN4924 + Pictilisib; first compound 0.04 µM): 0.593
relative viability (MLN4924 + Pictilisib; first compound 0.1265 µM): 0.357
relative viability (MLN4924 + Pictilisib; first compound 0.4 µM): 0.267
relative viability (MLN4924 + Pictilisib; first compound 1.265 µM): 0.14
relative viability (MLN4924 + Pictilisib; first compound 4 µM): 0.14
relative viability (MLN4924 + Pemetrexed; first compound 0.04 µM): 0.53
relative viability (MLN4924 + Pemetrexed; first compound 0.1265 µM): 0.327
relative viability (MLN4924 + Pemetrexed; first compound 0.4 µM): 0.289
relative viability (MLN4924 + Pemetrexed; first compound 1.265 µM): 0.175
relative viability (MLN4924 + Pemetrexed; first compound 4 µM): 0.159
